Source: PubChem BioAssay AID248 (DTP/NCI, 2004)
Values joined by “and” are separate entries in the source; they are usually repeats but may differ in a detail not shown here. Equal values may be shown once. Toxic doses and inconclusive results are not listed. Rule as the data show it: active = T/C of 150% or more; inactive = T/C below 125%.

System: L1210 leukemia ip in BDF1 mice, survival T/C
Test: NCI In Vivo Anticancer Drug Screen. Data for tumor model L1210 Leukemia (intraperitoneal) in B6D2F1 (BDF1) mice
Conditions: higher = longer survival
Summary of the method: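 Transplantable tumor model; survival measured in treated vs vehicle control mice. Value = treated/control.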

[1] = endpoint: mean survival time, dose: 100.0 mg/kg/injection, schedule: Q04DX002 (ip), vehicle: Klucel (hydroxypropylcellulose) (HPC)
[2] = endpoint: mean survival time, dose: 200.0 mg/kg/injection, schedule: Q04DX002 (ip), vehicle: Klucel (hydroxypropylcellulose) (HPC)
[3] = endpoint: mean survival time, dose: 50.0 mg/kg/injection, schedule: Q01DX009 (ip), vehicle: Klucel (hydroxypropylcellulose) (HPC)
[4] = endpoint: mean survival time, dose: 100.0 mg/kg/injection, schedule: Q01DX009 (ip), vehicle: Klucel (hydroxypropylcellulose) (HPC)
[5] = endpoint: mean survival time, dose: 200.0 mg/kg/injection, schedule: Q01DX009 (ip), vehicle: Klucel (hydroxypropylcellulose) (HPC)
[6] = endpoint: mean survival time, dose: 400.0 mg/kg/injection, schedule: Q01DX009 (ip), vehicle: Klucel (hydroxypropylcellulose) (HPC)
[7] = endpoint: mean survival time, dose: 100.0 mg/kg/injection, schedule: Q01DX001 (ip), vehicle: carboxymethylcellulose (CMC)
[8] = endpoint: mean survival time, dose: 200.0 mg/kg/injection, schedule: Q01DX001 (ip), vehicle: carboxymethylcellulose (CMC)
[9] = endpoint: mean survival time, dose: 100.0 mg/kg/injection, schedule: Q01DX009 (ip), vehicle: saline with Tween-80
[10] = endpoint: mean survival time, dose: 400.0 mg/kg/injection, schedule: Q01DX009 (ip), vehicle: saline with Tween-80
[11] = endpoint: mean survival time, dose: 100.0 mg/kg/injection, schedule: Q04DX003 (ip), vehicle: Klucel (hydroxypropylcellulose) (HPC)
[12] = endpoint: mean survival time, dose: 100.0 mg/kg/injection, schedule: Q01DX001 (ip), vehicle: saline
[13] = endpoint: mean survival time, dose: 200.0 mg/kg/injection, schedule: Q01DX001 (ip), vehicle: saline
[14] = endpoint: mean survival time, dose: 400.0 mg/kg/injection, schedule: Q01DX001 (ip), vehicle: saline
[15] = endpoint: mean survival time, dose: 400.0 mg/kg/injection, schedule: Q01DX001 (ip), vehicle: carboxymethylcellulose (CMC)

Measured: T/C

C[CH2][Pb]([CH2]C)([CH2]C)[n]1ccnc1
inactive: [1] 95 % of control | [2] 95 % of control | endpoint: mean survival time, dose: 400.0 mg/kg/injection, schedule: Q04DX002 (ip), vehicle: Klucel (hydroxypropylcellulose) (HPC) 100 % of control

CN1CCC(c2ccccc2)c2ccccc21 (configuration not stated)
inactive: endpoint: mean survival time, dose: 100.0 mg/kg/injection, schedule: Q04DX003 (ip), vehicle: other 95 % of control | endpoint: mean survival time, dose: 200.0 mg/kg/injection, schedule: Q04DX003 (ip), vehicle: other 120 % of control | endpoint: mean survival time, dose: 400.0 mg/kg/injection, schedule: Q04DX003 (ip), vehicle: other 98 % of control

CCCC[N+]12CC=C3COC(=O)C(C)(O)C(C)(O)C(C)C(=O)OC(CC1)C32 (configuration not stated)
inactive: [3] 92 % of control | [4] 95 % of control | [5] 100 % of control

[Cl][Ge]([c]1ccccc1)([c]1ccccc1)[c]1ccccc1
inactive: [4] 104 % of control | [5] 102 % of control | [6] 95 % of control

CC12CCC(O)C(CC1)C2 (configuration not stated)
inactive: endpoint: mean survival time, dose: 100.0 mg/kg/injection, schedule: Q04DX003 (ip), vehicle: saline with Tween-80 107 % of control | endpoint: mean survival time, dose: 200.0 mg/kg/injection, schedule: Q04DX003 (ip), vehicle: saline with Tween-80 88 % of control | endpoint: mean survival time, dose: 400.0 mg/kg/injection, schedule: Q04DX003 (ip), vehicle: saline with Tween-80 95 % of control

Cc1cccc2cc3cccc(C)[n+]3cc12
inactive: endpoint: mean survival time, dose: 5.0 mg/kg/injection, schedule: Q01DX001 (ip), vehicle: other 100 % of control | endpoint: mean survival time, dose: 10.0 mg/kg/injection, schedule: Q01DX001 (ip), vehicle: other 97 % of control | endpoint: mean survival time, dose: 20.0 mg/kg/injection, schedule: Q01DX001 (ip), vehicle: other 100 % of control

O=P(NC(=S)OCCN1CC1)(NC(=S)OCCN1CC1)NC(=S)OCCN1CC1
inactive: [7] 107 % of control | [8] 96 % of control

Cc1cn(C2C=CC(CO)O2)c(=O)[nH]c1=O (configuration not stated)
inactive: [9] 89 % of control | [10] 90 % of control

c1ccc(C2CCCCO2)cc1 (configuration not stated)
inactive: [9] 94 % of control | endpoint: mean survival time, dose: 200.0 mg/kg/injection, schedule: Q01DX009 (ip), vehicle: saline with Tween-80 100 % of control | [10] 88 % of control

O=C(N[C@H](CO)[C@H](O)c1ccc([N+](=O)[O-])cc1)C(Cl)Cl
inactive: endpoint: mean survival time, dose: 316.0 mg/kg/injection, schedule: Q01DX001 (ip), vehicle: carboxymethylcellulose (CMC) 106 % of control | endpoint: mean survival time, dose: 475.0 mg/kg/injection, schedule: Q01DX001 (ip), vehicle: carboxymethylcellulose (CMC) 115 % of control | endpoint: mean survival time, dose: 720.0 mg/kg/injection, schedule: Q01DX001 (ip), vehicle: carboxymethylcellulose (CMC) 113 % of control | endpoint: median survival time, dose: 274.4 mg/kg/injection, schedule: Q01DX001 (ip), vehicle: saline 105 % of control | endpoint: median survival time, dose: 392.0 mg/kg/injection, schedule: Q01DX001 (ip), vehicle: saline 100 % of control and 101 % of control | endpoint: median survival time, dose: 560.0 mg/kg/injection, schedule: Q01DX001 (ip), vehicle: saline 93 % of control and 94 % of control and 95 % of control | endpoint: median survival time, dose: 560.0 mg/kg/injection, schedule: Q03DX001 (ip), vehicle: saline 88 % of control | endpoint: median survival time, dose: 800.0 mg/kg/injection, schedule: Q01DX001 (ip), vehicle: saline 99 % of control and 100 % of control and 102 % of control | endpoint: median survival time, dose: 800.0 mg/kg/injection, schedule: Q03DX001 (ip), vehicle: saline 100 % of control

O=C(N/N=C/c1ccccc1[N+](=O)[O-])c1ccccc1
inactive: [4] 94 % of control | [5] 94 % of control | [6] 97 % of control

CN(C)/N=[N+](\[O-])c1ccccc1
inactive: endpoint: mean survival time, dose: 6.25 mg/kg/injection, schedule: Q01DX009 (ip), vehicle: Klucel (hydroxypropylcellulose) (HPC) 103 % of control | endpoint: mean survival time, dose: 12.5 mg/kg/injection, schedule: Q01DX009 (ip), vehicle: Klucel (hydroxypropylcellulose) (HPC) 100 % of control and 105 % of control | endpoint: mean survival time, dose: 25.0 mg/kg/injection, schedule: Q01DX009 (ip), vehicle: Klucel (hydroxypropylcellulose) (HPC) 97 % of control and 104 % of control | endpoint: mean survival time, dose: 25.0 mg/kg/injection, schedule: Q04DX003 (ip), vehicle: Klucel (hydroxypropylcellulose) (HPC) 96 % of control | [3] 100 % of control and 105 % of control | endpoint: mean survival time, dose: 50.0 mg/kg/injection, schedule: Q04DX003 (ip), vehicle: Klucel (hydroxypropylcellulose) (HPC) 95 % of control and 108 % of control | [11] 95 % of control and 105 % of control

CCN(CC)CCCC(C)Nc1cc(C)nc(Nc2nc3cc(Cl)c(Cl)cc3[nH]2)n1 (configuration not stated)
inactive: endpoint: mean survival time, dose: 5.0 mg/kg/injection, schedule: Q01DX009 (ip), vehicle: saline with Tween-80 96 % of control | endpoint: mean survival time, dose: 10.0 mg/kg/injection, schedule: Q01DX009 (ip), vehicle: saline with Tween-80 93 % of control

[O-]c1c[n+](-c2ccc(Cl)cc2Cl)no1
inactive: endpoint: mean survival time, dose: 50.0 mg/kg/injection, schedule: Q04DX002 (ip), vehicle: Klucel (hydroxypropylcellulose) (HPC) 100 % of control | [4] 100 % of control | [1] 106 % of control | [2] 103 % of control

CC(C)(C)CC(C)(C)N=Cc1ccccc1
inactive: [12] 98 % of control | [13] 105 % of control | [14] 88 % of control

Cc1ccc(Cl)c(C2c3ccccc3Cc3ccc4ccccc4c32)c1 (configuration not stated)
inactive: endpoint: mean survival time, dose: 50.0 mg/kg/injection, schedule: Q01DX001 (ip), vehicle: carboxymethylcellulose (CMC) 101 % of control | [7] 101 % of control | [8] 95 % of control | [15] 98 % of control

N=NC(=O)c1ccccc1Nc1c(O)[nH]c2ccccc12
inactive: [7] 89 % of control | [8] 93 % of control | [15] 93 % of control

C(=N\n1cnc2c(SCc3ccccc3)ncnc21)/c1ccccc1
inactive: endpoint: mean survival time, dose: 100.0 mg/kg/injection, schedule: Q01DX001 (ip), vehicle: other 93 % of control | endpoint: mean survival time, dose: 200.0 mg/kg/injection, schedule: Q01DX001 (ip), vehicle: other 91 % of control | endpoint: mean survival time, dose: 400.0 mg/kg/injection, schedule: Q01DX001 (ip), vehicle: other 91 % of control

Cc1ccc(C)c(NC(=O)Nc2ccccc2)c1
inactive: [4] 100 % of control | [11] 98 % of control | [5] 94 % of control | endpoint: mean survival time, dose: 200.0 mg/kg/injection, schedule: Q04DX003 (ip), vehicle: Klucel (hydroxypropylcellulose) (HPC) 96 % of control | [6] 98 % of control | endpoint: mean survival time, dose: 400.0 mg/kg/injection, schedule: Q04DX003 (ip), vehicle: Klucel (hydroxypropylcellulose) (HPC) 91 % of control

c1coc(-c2ncc3cnccn23)c1
inactive: endpoint: mean survival time, dose: 50.0 mg/kg/injection, schedule: Q01DX005 (ip), vehicle: saline 111 % of control | endpoint: mean survival time, dose: 100.0 mg/kg/injection, schedule: Q01DX005 (ip), vehicle: saline 108 % of control

CC1NNC(=O)C1c1ccc([N+](=O)[O-])cc1 (configuration not stated)
inactive: [12] 94 % of control | [13] 94 % of control | [14] 95 % of control

Cc1cc(C2=NCC(C)S2)c(C(C)C)cc1O (configuration not stated)
inactive: endpoint: mean survival time, dose: 100.0 mg/kg/injection, schedule: Q04DX002 (ip), vehicle: saline with Tween-80 93 % of control | endpoint: mean survival time, dose: 200.0 mg/kg/injection, schedule: Q04DX002 (ip), vehicle: saline with Tween-80 104 % of control | endpoint: mean survival time, dose: 400.0 mg/kg/injection, schedule: Q04DX002 (ip), vehicle: saline with Tween-80 104 % of control

COc1ccc2nc3cc(Cl)ccc3c(Nc3ccc(O)c(CN4CCN(C)CC4)c3)c2c1
inactive: endpoint: mean survival time, dose: 75.0 mg/kg/injection, schedule: Q01DX001 (ip), vehicle: other 96 % of control | endpoint: mean survival time, dose: 75.0 mg/kg/injection, schedule: Q04DX003 (ip), vehicle: other 94 % of control | endpoint: mean survival time, dose: 150.0 mg/kg/injection, schedule: Q01DX001 (ip), vehicle: other 100 % of control | endpoint: mean survival time, dose: 150.0 mg/kg/injection, schedule: Q04DX003 (ip), vehicle: other 97 % of control | endpoint: mean survival time, dose: 300.0 mg/kg/injection, schedule: Q01DX001 (ip), vehicle: other 97 % of control
